Experimental data as given in patent US20260265189A1, “NOVEL COMPOUND, AND PHARMACEUTICAL COMPOSITION COMPRISING SAME AS ACTIVE INGREDIENT” (SAPIENSBIO INC., priority 2022, published 2026).

System: α-SMA expression in MRC5 cells
Experiment: inhibition of α-SMA expression in MRC5 cells, image screening method
Type: cell-based
Settings: Homo sapiens; MRC5, compound 10 μM, TGF-β1 5 ng/mL, 72 hours, relative to TGF-β1 alone; read-out: Inhibitory activity (α-SMA expression inhibition)
Method: The ability of the compounds according to the present invention to inhibit the expression of α-SMA, which is a biomarker for pulmonary fibrosis, was evaluated by an image screening method. MRC5 cells were treated with the compound (10 μM) or DMSO under the condition of TGF-31 (5 ng/mL). 72 hours later, the cells were fixed with a 4% formaldehyde solution, treated with a 0.1% Triton-x100 solution, and treated with a 1% BSA solution to mask non-specific binding caused by antibodies. Anti-α-SMA-FITC (Sigma Aldrich) and anti-GAPDH (Cell Signaling Technology) were used as primary antibodies, and anti-mouse-TRITC was used as a secondary antibody. Imaging and analysis of the results were performed using Cytation5_Gen5_Version 3.12.08 (Bio Tek). Relative to the α-SMA expression level when TGF-31 was treated alone, the α-SMA expression level when both the compound and TGF-31 were treated was calculated as the ability of α-SMA expression inhibition of the corresponding compound.

O=C(N[C@@H]1CCNC1)N1CCN(c2ccc(F)cc2)c2cc(F)ccc21 [Compound 1, (R)-6-fluoro-4-(4-fluorophenyl)-N-(pyrrolidin-3-yl)-3,4-dihydroquinoxaline-1(2H)-carboxamide] was tested, and the inhibition at 10 µM was ≥ 70%.
In the case of CN1CC[C@@H](NC(=O)N2CCN(c3ccc(F)cc3)c3cc(F)ccc32)C1 [Compound 2, (R)-6-fluoro-4-(4-fluorophenyl)-N-(1-methylpyrrolidin-3-yl)-3,4-dihydroquinoxaline-1(2H)-carboxamide], the inhibition at 10 µM is reported as ≥ 70%.
With CC(C)N1CC[C@@H](NC(=O)N2CCN(c3ccc(F)cc3)c3cc(F)ccc32)C1 [Compound 3, (R)-6-fluoro-4-(4-fluorophenyl)-N-(1-isopropylpyrrolidin-3-yl)-3,4-dihydroquinoxaline-1(2H)-carboxamide] the inhibition at 10 µM was ≥ 70%.
For CC(C)CN1CC[C@@H](NC(=O)N2CCN(c3ccc(F)cc3)c3cc(F)ccc32)C1 [Compound 4, (R)-6-fluoro-4-(4-fluorophenyl)-N-(1-isobutylpyrrolidin-3-yl)-3,4-dihydroquinoxaline-1(2H)-carboxamide], the inhibition at 10 µM was ≥ 70%.
O=C(N[C@@H]1CCN(C(=O)C(F)(F)F)C1)N1CCN(c2ccc(F)cc2)c2cc(F)ccc21 [Compound 5, (R)-6-fluoro-4-(4-fluorophenyl)-N-(1-(2,2,2-trifluoroacetyl)pyrrolidin-3-yl)-3,4-dihydroquinoxaline-1(2H)-carboxamide] showed an inhibition at 10 µM of 10 to 30%.
Compound CC(=O)N1CC[C@@H](NC(=O)N2CCN(c3ccc(F)cc3)c3cc(F)ccc32)C1 [Compound 6, (R)-N-(1-acetylpyrrolidin-3-yl)-6-fluoro-4-(4-fluorophenyl)-3,4-dihydroquinoxaline-1(2H)-carboxamide] has an inhibition at 10 µM of 10 to 30%.
With CS(=O)(=O)N1CC[C@@H](NC(=O)N2CCN(c3ccc(F)cc3)c3cc(F)ccc32)C1 [Compound 7, (R)-6-fluoro-4-(4-fluorophenyl)-N-(1-(methylsulfonyl)pyrrolidin-3-yl)-3,4-dihydroquinoxaline-1(2H)-carboxamide] the inhibition at 10 µM was 10 to 30%.
With O=C(N[C@H]1CCNC1)N1CCN(c2ccc(F)cc2)c2cc(F)ccc21 [Compound 8, (S)-6-fluoro-4-(4-fluorophenyl)-N-(pyrrolidin-3-yl)-3,4-dihydroquinoxaline-1(2H)-carboxamide] the inhibition at 10 µM was ≥ 70%.
CN1CC[C@H](NC(=O)N2CCN(c3ccc(F)cc3)c3cc(F)ccc32)C1 [Compound 9, (S)-6-fluoro-4-(4-fluorophenyl)-N-(1-methylpyrrolidin-3-yl)-3,4-dihydroquinoxaline-1(2H)-carboxamide] showed an inhibition at 10 µM of 50 to 70%.
With CC(C)N1CC[C@H](NC(=O)N2CCN(c3ccc(F)cc3)c3cc(F)ccc32)C1 [Compound 10, (S)-6-fluoro-4-(4-fluorophenyl)-N-(1-isopropylpyrrolidin-3-yl)-3,4-dihydroquinoxaline-1(2H)-carboxamide] the inhibition at 10 µM was ≥ 70%.
N[C@H]1CCN(C(=O)N2CCN(c3ccc(F)cc3)c3cc(F)ccc32)C1 [Compound 11, (S)-(3-aminopyrrolidin-1-yl)(6-fluoro-4-(4-fluorophenyl)-3,4-dihydroquinoxalin-1(2H)-yl)methanone] showed an inhibition at 10 µM of 30 to 50%.
CN[C@H]1CCN(C(=O)N2CCN(c3ccc(F)cc3)c3cc(F)ccc32)C1 [Compound 12, (S)-(6-fluoro-4-(4-fluorophenyl)-3,4-dihydroquinoxalin-1(2H)-yl)(3-(methylamino)pyrrolidin-1-yl)methanone] gave an inhibition at 10 µM of 30 to 50%.
CC(C)CN[C@H]1CCN(C(=O)N2CCN(c3ccc(F)cc3)c3cc(F)ccc32)C1 [Compound 13, (S)-(6-fluoro-4-(4-fluorophenyl)-3,4-dihydroquinoxalin-1(2H)-yl)(3-(isobutylamino)pyrrolidin-1-yl)methanone] was tested, and the inhibition at 10 µM was ≥ 70%.
In the case of CC(C)N[C@H]1CCN(C(=O)N2CCN(c3ccc(F)cc3)c3cc(F)ccc32)C1 [Compound 14, (S)-(6-fluoro-4-(4-fluorophenyl)-3,4-dihydroquinoxalin-1(2H)-yl)(3-(isopropylamino)pyrrolidin-1-yl)methanone], the inhibition at 10 µM is reported as 30 to 50%.
CC(=O)N[C@H]1CCN(C(=O)N2CCN(c3ccc(F)cc3)c3cc(F)ccc32)C1 [Compound 15, (S)-N-(1-(6-fluoro-4-(4-fluorophenyl)-1,2,3,4-tetrahydroquinoxaline-1-carbonyl)pyrrolidin-3-yl)acetamide] gave an inhibition at 10 µM of 10 to 30%.
Compound CS(=O)(=O)N[C@H]1CCN(C(=O)N2CCN(c3ccc(F)cc3)c3cc(F)ccc32)C1 [Compound 16, (S)-N-(1-(6-fluoro-4-(4-fluorophenyl)-1,2,3,4-tetrahydroquinoxaline-1-carbonyl)pyrrolidin-3-yl)methanesulfonamide] has an inhibition at 10 µM of 10 to 30%.
With O=C(NC[C@H]1CCNC1)N1CCN(c2ccc(F)cc2)c2cc(F)ccc21 [Compound 17, (S)-6-fluoro-4-(4-fluorophenyl)-N-(pyrrolidin-3-ylmethyl)-3,4-dihydroquinoxaline-1(2H)-carboxamide] the inhibition at 10 µM was 30 to 50%.
Compound CN1CC[C@H](CNC(=O)N2CCN(c3ccc(F)cc3)c3cc(F)ccc32)C1 [Compound 18, (R)-6-fluoro-4-(4-fluorophenyl)-N-((1-methylpyrrolidin-3-yl)methyl)-3,4-dihydroquinoxaline-1(2H)-carboxamide] has an inhibition at 10 µM of 50 to 70%.
CC(C)N1CC[C@H](CNC(=O)N2CCN(c3ccc(F)cc3)c3cc(F)ccc32)C1 [Compound 19, (R)-6-fluoro-4-(4-fluorophenyl)-N-((1-isopropylpyrrolidin-3-yl)methyl)-3,4-dihydroquinoxaline-1(2H)-carboxamide] gave an inhibition at 10 µM of 50 to 70%.
With CC(C)CN1CC[C@H](CNC(=O)N2CCN(c3ccc(F)cc3)c3cc(F)ccc32)C1 [Compound 20, (R)-6-fluoro-4-(4-fluorophenyl)-N-((1-isobutylpyrrolidin-3-yl)methyl)-3,4-dihydroquinoxaline-1(2H)-carboxamide] the inhibition at 10 µM was ≥ 70%.
In the case of O=C(NC[C@H]1CCCN1)N1CCN(c2ccc(F)cc2)c2cc(F)ccc21 [Compound 21, (R)-6-fluoro-4-(4-fluorophenyl)-N-(pyrrolidin-2-ylmethyl)-3,4-dihydroquinoxaline-1(2H)-carboxamide], the inhibition at 10 µM is reported as ≥ 70%.
In the case of CN1CCC[C@@H]1CNC(=O)N1CCN(c2ccc(F)cc2)c2cc(F)ccc21 [Compound 22, (R)-6-fluoro-4-(4-fluorophenyl)-N-((1-methylpyrrolidin-2-yl)methyl)-3,4-dihydroquinoxaline-1(2H)-carboxamide], the inhibition at 10 µM is reported as ≥ 70%.
CC(C)N1CCC[C@@H]1CNC(=O)N1CCN(c2ccc(F)cc2)c2cc(F)ccc21 [Compound 23, (R)-6-fluoro-4-(4-fluorophenyl)-N-((1-isopropylpyrrolidin-2-yl)methyl)-3,4-dihydroquinoxaline-1(2H)-carboxamide] was tested, and the inhibition at 10 µM was ≥ 70%.
In the case of CC(C)CN1CCC[C@@H]1CNC(=O)N1CCN(c2ccc(F)cc2)c2cc(F)ccc21 [Compound 24, (R)-6-fluoro-4-(4-fluorophenyl)-N-((1-isobutylpyrrolidin-2-yl)methyl)-3,4-dihydroquinoxaline-1(2H)-carboxamide], the inhibition at 10 µM is reported as ≥ 70%.
With CN1CC[C@@H](CNC(=O)N2CCN(c3ccc(F)cc3)c3cc(F)ccc32)C1 [Compound 25, (S)-6-fluoro-4-(4-fluorophenyl)-N-((1-methylpyrrolidin-3-yl)methyl)-3,4-dihydroquinoxaline-1(2H)-carboxamide] the inhibition at 10 µM was 50 to 70%.
With CC(C)N1CC[C@@H](CNC(=O)N2CCN(c3ccc(F)cc3)c3cc(F)ccc32)C1 [Compound 26, (S)-6-fluoro-4-(4-fluorophenyl)-N-((1-isopropylpyrrolidin-3-yl)methyl)-3,4-dihydroquinoxaline-1(2H)-carboxamide] the inhibition at 10 µM was 50 to 70%.
In the case of CC(C)CN1CC[C@@H](CNC(=O)N2CCN(c3ccc(F)cc3)c3cc(F)ccc32)C1 [Compound 27, (S)-6-fluoro-4-(4-fluorophenyl)-N-((1-isobutylpyrrolidin-3-yl)methyl)-3,4-dihydroquinoxaline-1(2H)-carboxamide], the inhibition at 10 µM is reported as ≥ 70%.
O=C(NCC1CC1)N1CCN(c2ccc(F)cc2)c2cc(F)ccc21 [Compound 28, N-(cyclopropylmethyl)-6-fluoro-4-(4-fluorophenyl)-3,4-dihydroquinoxaline-1(2H)-carboxamide] was tested, and the inhibition at 10 µM was 10 to 30%.
Compound O=C(NC1CCNCC1)N1CCN(c2ccc(F)cc2)c2cc(F)ccc21 [Compound 29, 6-fluoro-4-(4-fluorophenyl)-N-(piperidin-4-yl)-3,4-dihydroquinoxaline-1(2H)-carboxamide] has an inhibition at 10 µM of 50 to 70%.
In the case of CN1CCC(NC(=O)N2CCN(c3ccc(F)cc3)c3cc(F)ccc32)CC1 [Compound 30, 6-fluoro-4-(4-fluorophenyl)-N-(1-methylpiperidin-4-yl)-3,4-dihydroquinoxaline-1(2H)-carboxamide], the inhibition at 10 µM is reported as 50 to 70%.
Compound CC(C)N1CCC(NC(=O)N2CCN(c3ccc(F)cc3)c3cc(F)ccc32)CC1 [Compound 31, 6-fluoro-4-(4-fluorophenyl)-N-(1-isopropylpiperidin-4-yl)-3,4-dihydroquinoxaline-1(2H)-carboxamide] has an inhibition at 10 µM of 50 to 70%.
For O=C(NCC1CCNCC1)N1CCN(c2ccc(F)cc2)c2cc(F)ccc21 [Compound 33, 6-fluoro-4-(4-fluorophenyl)-N-(piperidin-4-ylmethyl)-3,4-dihydroquinoxaline-1(2H)-carboxamide], the inhibition at 10 µM was 50 to 70%.
CN1CCC(CNC(=O)N2CCN(c3ccc(F)cc3)c3cc(F)ccc32)CC1 [Compound 34] was tested, and the inhibition at 10 µM was 50 to 70%.
